Source: patent US10993923B2, “Method for ameliorating fibrosis using 1-[4-chloro-3-(trifluoromethyl)phenyl]-3-[3-(4-cyanophenoxy)phenyl]urea” (priority 2016, dated 2021)

Key:
[1] = biological target: T1, SHP-1 (Homo sapiens, UniProt P29350); test: SHP-1 phosphatase activity, LX2 cells; type: cell-based
T1 construct: LX2 cell protein extract were reacted with anti-SHP-1 antibody in immunoprecipitation buffer overnight; endogenous in cells; host or cells: LX2 cells
Description: After drug treatment, mouse fibroblasts (NIH3T3 cell line), human lung epithelial cells (A549 cell line) or LX2 cell protein extract were reacted with anti-SHP-1 antibody in immunoprecipitation buffer overnight. Protein A/G Sepharose Fast Flow Beads (GE) were added to each sample, followed by a rotation reaction at 4° C. for 3 hours. The 96EnzChek® tyrosine phosphatase assay kit (R-22067) was used for SHP-1 activity assay (Invitrogen, USA).
Plasmids encoding the human wild-type SHP-1 and SHP-1 mutant, in which the N—SH2 domain was truncated (dN1) or one aspartic acid at site 61 was changed into an alanine residue (D61A) were cloned into the pCMV6-entry vector with myc-tag. These mutants were confirmed through DNA sequencing. Smart-pool siRNA, including the control (D-001810-10), and SHP-1 (PTPN6, L-009778-00-0005) were obtained from Dharmacon Inc. (Chicago, Ill., USA). For transient expression, SHP-1 plasmids or siRNA (final concentration, 100 nM) with the Lipofectamine 2000 transfection reagent were pretransfected into the LX2 cells for 24 h, following the manufacturer's instructions.

[2] = system: CCl4-induced hepatic fibrosis in mice; test: CCl4-induced hepatic fibrosis mice regression model; type: in vivo, male C57BL/6J mice; settings: 10 mg/kg for 4 weeks without CCl4 after 8 weeks CCl4 induction
Description: (§1) In male C57BL/6J mice, liver fibrosis was induced by carbon tetrachloride (CCl4). The mice were given peritoneal injection of carbon tetrachloride for 4 or 8 weeks every two weeks.
(§2) The mice liver samples were stored in 10% formaldehyde, dehydrated with gradient alcohol, embedded in paraffin blocks, sectioned to a thickness of 3 μm, placed on glass slides, and stained with Picrosirius Red Stain kit (ScyTek, USA), following the manufacturer's instructions. The severity of liver fibrosis was graded according to the Ishak fibrosis score. Quantitative collagen-positive area (qCPA) was determined by densitometry via ImageJ software. Hepatic hydroxyproline concentrations were measured by the hydroxyproline assay kit (Biovision, USA), following the manufacturer's instructions Immunohistochemistry was performed by the Leica BOND-MAX automatic chromatograph (Leica Biosystems, Germany), following the manufacturer's instructions.

[3] = system: HSC-T6 cells; test: Apoptosis (Annexin V / propidium iodide flow cytometry), HSC-T6 cells; type: cell-based, rat
Description: (§3) Rat immortal hepatic stellate cell line HSC-T6 and LX2 human hepatic stellate cell line were provided by Professor Scott Friedman of Mount Sinai Hospital in New York, USA. The primary mouse HSCs were obtained via the way: after intubating the hepatic portal vein of the mouse, the cells were perfused with Leffert's and ethylene glycol bis-aminoethyl ether tetraacetic acid (EGTA) buffer in situ, and then collagenase was injected to digest the liver tissue, and then the primary mouse HSCs were isolated by Histodnz gradient. […]
HSC-T6 cells, LX2 cells or primary mouse HSCs cells were seeded in 96-well plates (5,000 cells/well) for 24 hours, and the cells were treated with various concentrations of 1-[4-chloro-3-(trifluoromethyl)phenyl]-3-[3-(4-cyanophenoxy)phenyl]urea or Sorafenib for 24 or 48 hours. The effect of each reagent on the cell viability and the cell were evaluated by CellTiter 96 AQueous one solution of 3-(4,5-dimethylthiazol-2-yl)-5-(3-carboxymethoxyphenyl)-2-(4-sulfophenyl)-2H-tetra zolium, an inner, MTS (Promega, USA). […] The proportion of apoptotic cells was mixed the early (Annexin V+/PI−) and the late (Annexin V+/PI+) apoptotic cells measured by BD FACS Verse flow cytometry (BD, USA). […]

[4] = system: primary mouse HSCs; test: Cell viability (MTS), primary mouse HSCs; type: cell-based; settings: 24 or 48 hours; FIG. 14A
Description: as §3
HSC-T6 cells, LX2 cells or primary mouse HSCs cells were seeded in 96-well plates (5,000 cells/well) for 24 hours, and the cells were treated with various concentrations of 1-[4-chloro-3-(trifluoromethyl)phenyl]-3-[3-(4-cyanophenoxy)phenyl]urea or Sorafenib for 24 or 48 hours. The effect of each reagent on the cell viability and the cell were evaluated by CellTiter 96 AQueous one solution of 3-(4,5-dimethylthiazol-2-yl)-5-(3-carboxymethoxyphenyl)-2-(4-sulfophenyl)-2H-tetra zolium, an inner, MTS (Promega, USA). […] The proportion of apoptotic cells was mixed the early (Annexin V+/PI−) and the late (Annexin V+/PI+) apoptotic cells measured by BD FACS Verse flow cytometry (BD, USA).

[5] = system: CCl4-induced hepatic fibrosis in mice; test: CCl4-induced hepatic fibrosis mice prevention model; type: in vivo, male C57BL/6J mice; settings: concurrently administered with CCl4 for 4 weeks; FIG. 11A-11E
Description: as §1, §2

[6] = system: PDGFR and STAT3 pathways in HSC-T6 cells; test: Western blot of signalling proteins in HSC-T6 cells; type: cell-based, rat
Description: as §3, with “gradient. HSC-T6 cells were cultured in Waymouth medium; LX2 cells and primary mouse HSCs were cultured in Dulbecco's Modified Eagle Medium (DMEM) containing 10% fetal bovine serum (FBS), 100 μg/mL penicillin, 100 μg/mL streptomycin, and 2 mM L-glutamine HSC-T6 cells, LX2 cells and primary mouse HSCs were cultured in a humidified incubator containing 5% carbon dioxide at 37° C. After adding the FBS, the resting HSC is started.” for “gradient.”
Whole-cell extracts were obtained via RIPA buffer (Millipore, USA) and protein concentrations were quantified via a BCA protein assay kit (Thermo Fisher Scientific, USA). […] Proteins were detected by Immobilon Western Chemiluminescent HRP substrate (Millipore, USA) or ECL detection system (UVP Corporation, USA). […]

T1 sequence (P29350 whole entry): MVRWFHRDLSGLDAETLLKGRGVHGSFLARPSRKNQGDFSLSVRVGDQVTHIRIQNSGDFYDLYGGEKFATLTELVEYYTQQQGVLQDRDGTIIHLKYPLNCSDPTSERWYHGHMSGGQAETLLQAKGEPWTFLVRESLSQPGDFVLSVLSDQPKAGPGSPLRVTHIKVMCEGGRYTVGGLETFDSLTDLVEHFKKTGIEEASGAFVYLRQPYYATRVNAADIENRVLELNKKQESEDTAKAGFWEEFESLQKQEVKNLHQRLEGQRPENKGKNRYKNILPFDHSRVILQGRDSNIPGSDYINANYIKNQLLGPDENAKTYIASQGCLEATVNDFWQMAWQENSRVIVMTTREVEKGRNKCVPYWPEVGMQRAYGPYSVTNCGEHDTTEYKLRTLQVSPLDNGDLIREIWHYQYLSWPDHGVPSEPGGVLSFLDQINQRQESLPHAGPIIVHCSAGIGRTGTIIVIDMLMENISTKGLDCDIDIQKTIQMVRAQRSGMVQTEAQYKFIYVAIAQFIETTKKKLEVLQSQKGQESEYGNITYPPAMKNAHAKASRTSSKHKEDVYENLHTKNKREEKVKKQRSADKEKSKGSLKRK

## N#Cc1ccc(Oc2cccc(NC(=O)Nc3ccc(Cl)c(C(F)(F)F)c3)c2)cc1 [1-[4-chloro-3-(trifluoromethyl)phenyl]-3-[3-(4-cyanophenoxy)phenyl]urea]
[1]; FIG. 17C
  SHP-1 activity in the ectopic expression of the vector and wild-type SHP-1: significantly increased the SHP-1 activity
[1]; LX2, sorafenib 5 μM, compound 2.5 or 5 μM, FIG. 16C
  SHP-1 activity: significantly increased the SHP-1 activity at a lower concentration
[1]; test system not stated at the place, text refers to FIG. 2A
  enhancing SHP-1 activity, compared with sorafenib: better than the known anti-fibrosis drug sorafenib
[2]; FIG. 12G
  qCPA (quantitative collagen-positive area): significantly decreased
[2]; FIG. 12H
  Ishak fibrosis score: significantly decreased
[3]; HSC-T6, 24 hours, compared with sorafenib, FIG. 14B
  HSC apoptosis: significantly increased HSC apoptosis in a dose-dependent manner
[3]; rat STAT3 stable overexpression clone, FIG. 15C
  compound-induced apoptosis in STAT3-overexpressing HSCs: significantly abolished
[4]
  viability of primary mouse HSCs: dose- and time-dependent effects to reduce the viability
[5]
  hepatic fibrosis (Picrosirius Red staining, qCPA, Ishak fibrosis score, α-SMA expression, hydroxyproline concentration): significant fibrosis regression
[6]; 10 μM for 4 hours, then PDGF-BB 100 ng/mL 10 minutes, FIG. 14E
  p-PDGFR and p-Akt in the PDGFR pathway: downregulated
[6]; FIG. 15A
  downregulation of p-STAT3 and cyclin D1, compared with sorafenib: more significant dose-escalation effects on the downregulation
